In patent publication EP1169336B1, “ENT-STEROIDS AS SELECTIVELY ACTIVE ESTROGENS” (Schering Aktiengesellschaft, priority 1999, dated 2000):
Like-named read-outs stand apart in the source and are kept apart here.

Experiments:
[1] = reported, source not given; cited from earlier work
[2] = Endocrinology 63, 464 (1958); cited from earlier work
hERβ [3] = format: binding, human; conditions: for ERβ/ ER: quotient of RBA to hERβ and hER
Rat uterus ER = assay: Estrogen receptor binding study, competition with 3H-estradiol, rat uterus cytosol; conditions: 3H-estradiol as ligand, estradiol = 100
Rat prost. ER = assay: Estrogen receptor binding study, competition with 3H-estradiol, rat prostate cytosol
[4] = biological target: human estrogen receptor α (ERα) (Homo sapiens, UniProt P03372); conditions: cited from earlier work
hERβ [5] = conditions: cited from earlier work
[6] = enantio form; J. Med. Chem. 10, 199-204 1967; cited from earlier work

human estrogen receptor α (ERα), sequence (P03372 whole entry): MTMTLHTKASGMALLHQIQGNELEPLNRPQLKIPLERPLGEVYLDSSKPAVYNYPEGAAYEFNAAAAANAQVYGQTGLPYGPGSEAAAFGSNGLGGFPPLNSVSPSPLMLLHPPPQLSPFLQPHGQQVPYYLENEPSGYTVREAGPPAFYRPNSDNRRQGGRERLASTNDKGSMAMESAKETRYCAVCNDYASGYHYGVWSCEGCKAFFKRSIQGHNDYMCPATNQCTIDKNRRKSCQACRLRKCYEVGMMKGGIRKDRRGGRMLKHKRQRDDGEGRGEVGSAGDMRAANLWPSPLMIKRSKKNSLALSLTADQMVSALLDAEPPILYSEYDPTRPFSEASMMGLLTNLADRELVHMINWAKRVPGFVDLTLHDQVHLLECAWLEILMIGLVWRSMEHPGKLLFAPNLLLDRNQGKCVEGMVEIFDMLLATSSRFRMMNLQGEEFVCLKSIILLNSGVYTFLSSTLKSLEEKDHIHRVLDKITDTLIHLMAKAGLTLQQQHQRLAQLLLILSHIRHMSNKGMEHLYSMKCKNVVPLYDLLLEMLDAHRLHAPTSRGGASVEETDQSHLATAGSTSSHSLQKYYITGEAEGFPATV

In the case of C[C@@]12CC[C@H]3c4ccc(O)cc4CC[C@H]3[C@H]1CC[C@H]2O (single isomer, unassigned) [ent-8α-estradiol], the antilipemic activity [1] is listed as “antilipemic activity in the case of no feminization”.

In the case of CC[C@@]12CC[C@@H]3[C@H](CCC4=CC(=O)CC[C@H]43)[C@H]1CC[C@]2(O)C#CCl (single isomer, unassigned) [ent-17α-chloroethinyl-17β-hydroxy-18a-homo-estr-4-en-3-one], the “Clauberg Test” value [2] is given as “ineffective”.

For C[C@]12CC[C@H]3[C@@H](CC=C4C[C@@H](O)CC[C@@]43C)[C@@H]1CC[C@@H]2O [5-Andro-stene-diol, 5-Androstenediol], the “ERβ/ ER” value (hERβ [3]) was 3, the “Rat uterus ER(RBA)” value (Rat uterus ER) was 0.1 and the “Rat prost. ER(RBA)” value (Rat prost. ER; 3H-estradiol as ligand, prostate cytosol, estradiol = 100) was 5. For the same molecule, the “prost. ER/uterus ER” value (Rat prost. ER; ratio of binding to prostate and uterus receptor) was 50, the “hER RBA*” value [4] was 6 and the “hERβ RBA*” value (hERβ [5]) was 17.

With C[C@]12CC[C@@H]3c4ccc(O)cc4CC[C@H]3[C@@H]1C[C@@H](O)C2=O [16α-hydroxyestrone] the “binding to the human estrogen receptor β (ERβ) compared with the human estrogen receptor α (ERα)” value (hERβ [3]; some studies) was “three times better” and the “RBA value on the rat prostate estrogen receptor compared with the RBA value on the rat uterus estrogen receptor” value (Rat prost. ER; some studies) was “five times better”.

In the case of C#C[C@@]1(O)CC[C@@H]2[C@H]3CCc4cc(O)ccc4[C@@H]3CC[C@]21C [17α-Ethinylestradiol], the “estrogeneity, relative to estrone” value [6] is listed as “less than 5%”.

In the case of C[C@]12CC[C@@H]3c4ccc(O)cc4CC[C@H]3[C@@H]1C[C@@H](O)[C@@H]2O [Estriol], the “ERβ/ ER” value (hERβ [3]) is listed as 1.5 and the “hERβ RBA*” value (hERβ [5]; relative binding affinity, estradiol = 100) is listed as 21.

In the case of O=c1c(-c2ccc(O)cc2)coc2cc(O)cc(O)c12 [Geni-steine, Genisteine], the “ERβ/ ER” value (hERβ [3]) is reported as 7.
